Source: patent US5001115A, “Prodrugs of biologically active hydroxyaromatic compounds” (University of Florida, priority 1989, dated 1991)

Experiment: Hydrolysis in pH=7.1 buffer at room temperature
Format: physicochemical
Protocol: The compounds: [drawing 4] were prepared similarly to the above product and their hydrolytic properties under similar conditions were evaluated.

## O=C1CCC(=O)N1COc1ccc([N+](=O)[O-])cc1 [(b)]
Similar conditions (pH=7.1 buffer, room temperature)
  half-life: ~6 h

## O=C(NCOc1ccc([N+](=O)[O-])cc1)c1ccccc1 [Compound (a)]
pH=7.1, similar conditions
  hydrolytic stability (in words): completely stable

## O=C1c2ccccc2S(=O)(=O)N1COc1ccc([N+](=O)[O-])cc1 [Example 1, 4-Nitro-1-[1',1',3'-trioxo-(2'H)-1',2'-benzisothiazol-2'-yl]methoxybenzene]
pH=7.1 buffer, room temperature
  half-life: ~0.283 h
